Data published in patent US20230123334A1, “AMINO LIPID COMPOUND, PREPARATION METHOD THEREFOR, AND APPLICATION THEREOF” (SHENZHEN SHENXIN BIOTECHNOLOGY CO., LTD., priority 2020, published 2023).

Tested on: HEK293 cells
Assay: Preliminary screening as mRNA vectors, EGFP mRNA transfection of HEK293 cells
Type: cell-based
Conditions: EGFP mRNA 50 ng per well, 96-well plates; percentage of GFP fluorescent cells relative to total number of cells (Hoechst)
Summary of the method: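 Screening format: EGFP mRNA transfection (50 ng/well) into HEK293 in 10% FBS-supplemented DMEM. Percent green fluorescent cells, normalised to Hoechst nuclear count, gave the value; Lipofectamine2000 was the reference transfectant.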

With `CCCCCCCCCCCCN(CCCCCCCCCCCC)c1nc(NCCCN2CCOCC2)nc(SCCCCCCCCCC)n1` [D8S10^2N12] the “Absolute mRNA transfection efficiency in HEK293 cells” value (“Absolute mRNA transfection efficiency” for short) was 0.0%.
With `CCCCCCCCCCCCCCCCCCNc1nc(NCCN2CCCC2)nc(SCCCCCCCCCCCCCCCCCC)n1` [Compound D3S18N18] the “Absolute mRNA transfection efficiency” value was 0.1%.
With `CCCCCCCCCCCCCCCCCCSc1nc(NCCCCCCCCC)nc(NCCN(CC)CC)n1` [Compound D7S18N9] the “Absolute mRNA transfection efficiency” value was 1.9%.
In the case of `CCCCCCCCCCSc1nc(NCCN(C)C)nc(SCCCCCCC)n1` [Compound D1S7S10], the “Absolute mRNA transfection efficiency” value was 5.6%.
`CCCCCCCCCCCCCCCSc1nc(NCCCCCC)nc(NCCN2CCCCC2)n1` [Compound D4S15N6] was tested, and the “Absolute mRNA transfection efficiency” value was 1.3%.
For `CCCCCCCCCCCCCCCCNc1nc(NCCN(CC)CC)nc(SCCCCCCCC)n1` [Compound D7S8N16], the “Absolute mRNA transfection efficiency” value was 16.8%.
With `CCCCCCCCCCCCSc1nc(NCCCCCCCC)nc(NCCN2CCCC2)n1` [Compound D3S12N8] the “Absolute mRNA transfection efficiency” value was 12.3%.
With `CCCCCCCCCCCCCCSc1nc(NCCCCCCCCCCCCC)nc(NCCCN(C)C)n1` [Compound D6S14N13] the “Absolute mRNA transfection efficiency” value was 5.2%.
In the case of `CCCCCCCCCSc1nc(NCCCCCCC)nc(NCCCN2CCN(C)CC2)n1` [Compound D9S9N7], the “Absolute mRNA transfection efficiency” value was 2.8%.
For `CCCCCCCCCCCSc1nc(NCCCCCCC)nc(NCCN2CCCC2)n1` [Compound D3S11N7], the “Absolute mRNA transfection efficiency” value was 8.0%.
`CCCCCCCCCCCSc1nc(NCCN2CCCCC2)nc(SCCCCCCCC)n1` [Compound D4S8S11] was tested, and the “Absolute mRNA transfection efficiency” value was 10.9%.
With `CCCCCCCCCCCCCCCCCCNc1nc(NCCN2CCCCC2)nc(SCCCCCCCCCCCCCCC)n1` [Compound D4S15N18] the “Absolute mRNA transfection efficiency” value was 5.1%.
For `CCCCCCCCCCCCCCCCNc1nc(NCCN2CCCCC2)nc(SCCCCCCCCC)n1` [Compound D4S9N16], the “Absolute mRNA transfection efficiency” value was 2.2%.
In the case of `CCCCCCCCCCCCCNc1nc(NCCN2CCCC2)nc(SCCCCCCCCCCC)n1` [Compound D3S11N13], the “Absolute mRNA transfection efficiency” value was 25.9%.
`CCCCCCCCCCCCCCCCCCNc1nc(NCCN2CCN(C)CC2)nc(SCCCCCCCCCCCCCCCCCC)n1` [Compound D5S18N18] was tested, and the “Absolute mRNA transfection efficiency” value was 0.0%.
In the case of `CCCCCCCCCCCCCCCCCCSc1nc(NCCCCCCCCCCCCCCCC)nc(NCCCN2CCOCC2)n1` [Compound D8S18N16], the “Absolute mRNA transfection efficiency” value was 0.0%.
`CCCCCCCCCCCCNc1nc(NCCCN2CCN(C)CC2)nc(SCCCCCCCC)n1` [Compound D9S8N12] was tested, and the “Absolute mRNA transfection efficiency” value was 57.6%.
`CCCCCCCCNc1nc(NCCCN2CCN(C)CC2)nc(SCCCCCCC)n1` [Compound D9S7N8] was tested, and the “Absolute mRNA transfection efficiency” value was 1.7%.
`CCCCCCCCCCCCNc1nc(NCCCN(C)C)nc(SCCCCCC)n1` [Compound D6S6N12] was tested, and the “Absolute mRNA transfection efficiency” value was 3.5%.
`CCCCCCCCCCCCCCCNc1nc(NCCN(C)C)nc(SCCCCCCC)n1` [Compound D1S7N15] was tested, and the “Absolute mRNA transfection efficiency” value was 21.3%.
For `CCCCCCCCCNc1nc(NCCCN(C)C)nc(SCCCCCCC)n1` [Compound D6S7N9], the “Absolute mRNA transfection efficiency” value was 5.9%.
`CCCCCCCCNc1nc(NCCN2CCCC2)nc(SCCCCCCCC)n1` [Compound D3S8N8] was tested, and the “Absolute mRNA transfection efficiency” value was 3.0%.
For `CCCCCCCCCCCCCCCCSc1nc(NCCN(CC)CC)nc(SCCCCCCC)n1` [Compound D7S7S16], the “Absolute mRNA transfection efficiency” value was 10.7%.
For `CCCCCCCCCCCCSc1nc(NCCCCCC)nc(NCCN2CCCC2)n1` [Compound D3S12N6], the “Absolute mRNA transfection efficiency” value was 0.0%.
For `CCCCCCCCCCSc1nc(NCCCCCCCC)nc(NCCCN2CCN(C)CC2)n1` [Compound D9S10N8], the “Absolute mRNA transfection efficiency” value was 5.4%.
`CCCCCCCCCCCCCCCCNc1nc(NCCCN2CCN(C)CC2)nc(SCCCCCCCCCCCCCC)n1` [Compound D9S14N16] was tested, and the “Absolute mRNA transfection efficiency” value was 0.8%.
`CCCCCCCCCCCCCCCSc1nc(NCCCCCCCCC)nc(NCCCN(C)C)n1` [Compound D6S15N9] was tested, and the “Absolute mRNA transfection efficiency” value was 61.9%.
With `CCCCCCCCCNc1nc(NCCCN2CCN(C)CC2)nc(SCCCCCCC)n1` [Compound D9S7N9] the “Absolute mRNA transfection efficiency” value was 5.2%.
With `CCCCCCCCCSc1nc(NCCN2CCCC2)nc(SCCCCCCC)n1` [Compound D3S7S9] the “Absolute mRNA transfection efficiency” value was 12.6%.
`CCCCCCCCCCCCCCCCSc1nc(NCCCCCCCCCCCCCCC)nc(NCCCN2CCOCC2)n1` [Compound D8S16N15] was tested, and the “Absolute mRNA transfection efficiency” value was 0.0%.
In the case of `CCCCCCCCCCCCCCCNc1nc(NCCN(CC)CC)nc(SCCCCCCCCCCCCCCC)n1` [Compound D7S15N15], the “Absolute mRNA transfection efficiency” value was 1.8%.
With `CCCCCCCCCCCCCCSc1nc(NCCCCCCC)nc(NCCN(C)C)n1` [Compound D1S14N7] the “Absolute mRNA transfection efficiency” value was 25.7%.
In the case of `CCCCCCCCCCCCCCSc1nc(NCCCCCCC)nc(NCCN(CC)CC)n1` [Compound D7S14N7], the “Absolute mRNA transfection efficiency” value was 36.3%.
`CCCCCCCCCCCCCCCNc1nc(NCCN(C)C)nc(SCCCCCC)n1` [Compound D1S6N15] was tested, and the “Absolute mRNA transfection efficiency” value was 3.6%.
`CCCCCCCCCCCCCCCCCCNc1nc(NCC2CCN(C)CC2)nc(SCCCCCCCCCCCCCCCCCC)n1` [Compound D10S18N18] was tested, and the “Absolute mRNA transfection efficiency” value was 0.1%.
In the case of `CCCCCCCCCCCCCCCCNc1nc(NCCCN2CCN(C)CC2)nc(SCCCCCCCCCCCCCCCC)n1` [Compound D9S16N16], the “Absolute mRNA transfection efficiency” value was 0.1%.
For `CCCCCCCCCCCNc1nc(NCCCN(C)C)nc(SCCCCCC)n1` [Compound D6S6N11], the “Absolute mRNA transfection efficiency” value was 2.5%.
`CCCCCCCCCCCCCCCSc1nc(NCCN2CCOCC2)nc(SCCCCCCC)n1` [Compound D2S7S15] was tested, and the “Absolute mRNA transfection efficiency” value was 17.5%.
For `CCCCCCCCCCCCNc1nc(NCCCN2CCOCC2)nc(SCCCCCC)n1` [Compound D8S6N12], the “Absolute mRNA transfection efficiency” value was 2.0%.
For `CCCCCCCCCCCCNc1nc(NCCN(C)C)nc(SCCCCCCCCCCC)n1` [Compound D1S11N12], the “Absolute mRNA transfection efficiency” value was 27.3%.
For `CCCCCCCCCCCCCCCSc1nc(NCCCCCC)nc(NCCN2CCN(C)CC2)n1` [Compound D5S15N6], the “Absolute mRNA transfection efficiency” value was 45.9%.
In the case of `CCCCCCCCCCCCN(CCCCCCCCCCCC)c1nc(NCCCN2CCN(C)CC2)nc(SCCCCCCCCCCC)n1` [D9S11^2N12], the “Absolute mRNA transfection efficiency” value was 0.0%.
With `CCCCCCCCCCCCCNc1nc(NCCCN2CCOCC2)nc(SCCCCCCCCC)n1` [Compound D8S9N13] the “Absolute mRNA transfection efficiency” value was 12.6%.
For `CCCCCCCCSc1nc(NCCCCCCC)nc(NCCCN2CCOCC2)n1` [Compound D8S8N7], the “Absolute mRNA transfection efficiency” value was 0.1%.
With `CCCCCCCCCCCCN(CCCCCCCCCCCC)c1nc(NCCCN2CCN(C)CC2)nc(SCCCCCC)n1` [D9S6^2N12] the “Absolute mRNA transfection efficiency” value was 0.1%.
For `CCCCCCCCCCSc1nc(NCCCN2CCN(C)CC2)nc(SCCCCCCC)n1` [Compound D9S7S10], the “Absolute mRNA transfection efficiency” value was 47.1%.
In the case of `CCCCCCCCCCCCSc1nc(NCCCCCCC)nc(NCCN2CCN(C)CC2)n1` [Compound D5S12N7], the “Absolute mRNA transfection efficiency” value was 9.9%.
For `CCCCCCCCCCCCCCCSc1nc(NCCCCCCCCCCCC)nc(NCCN(CC)CC)n1` [Compound D7S15N12], the “Absolute mRNA transfection efficiency” value was 4.7%.
`CCCCCCCCCCCCCCSc1nc(NCCCN2CCOCC2)nc(SCCCCCC)n1` [Compound D8S6S14] was tested, and the “Absolute mRNA transfection efficiency” value was 6.8%.
In the case of `CCCCCCCCCCCCCNc1nc(NCCCN2CCOCC2)nc(SCCCCCCC)n1` [Compound D8S7N13], the “Absolute mRNA transfection efficiency” value was 5.8%.
With `CCCCCCCNc1nc(NCCN2CCCCC2)nc(SCCCCCC)n1` [Compound D4S6N7] the “Absolute mRNA transfection efficiency” value was 0.0%.
`CCCCCCCCCCCCCCCCNc1nc(NCCN2CCCC2)nc(SCCCCCCCCCCCC)n1` [Compound D3S12N16] was tested, and the “Absolute mRNA transfection efficiency” value was 1.9%.
With `CCCCCCCCCCCCSc1nc(NCCCCCCCC)nc(NCCN(CC)CC)n1` [Compound D7S12N8] the “Absolute mRNA transfection efficiency” value was 3.0%.
With `CCCCCCCCCCCCCCCSc1nc(NCCN(C)C)nc(SCCCCCC)n1` [Compound D1S6S15] the “Absolute mRNA transfection efficiency” value was 1.2%.
In the case of `CCCCCCCCCCCSc1nc(NCCCCCCCCC)nc(NCCCN(C)C)n1` [Compound D6S11N9], the “Absolute mRNA transfection efficiency” value was 45.1%.
With `CCCCCCCCCCCCCCCCNc1nc(NCCN2CCOCC2)nc(SCCCCCCC)n1` [Compound D2S7N16] the “Absolute mRNA transfection efficiency” value was 2.6%.
With `CCCCCCCCCCCSc1nc(NCCN2CCN(C)CC2)nc(SCCCCCC)n1` [Compound D5S6S11] the “Absolute mRNA transfection efficiency” value was 21.1%.
In the case of `CCCCCCCCCCCCCNc1nc(NCCN2CCCC2)nc(SCCCCCC)n1` [Compound D3S6N13], the “Absolute mRNA transfection efficiency” value was 7.7%.
With `CCCCCCCCCCCCCCSc1nc(NCCCCCCCC)nc(NCCCN2CCN(C)CC2)n1` [Compound D9S14N8] the “Absolute mRNA transfection efficiency” value was 24.8%.
`CCCCCCCNc1nc(NCCN2CCN(C)CC2)nc(SCCCCCC)n1` [Compound D5S6N7] was tested, and the “Absolute mRNA transfection efficiency” value was 4.3%.
In the case of `CCCCCCCCCCCCCCCCNc1nc(NCCN2CCCC2)nc(SCCCCCCCCCCCCCCC)n1` [Compound D3S15N16], the “Absolute mRNA transfection efficiency” value was 7.6%.
`CCCCCCCCCCCCCCCCCCNc1nc(NCCN2CCOCC2)nc(SCCCCCCCCCCCCCCCCCC)n1` [Compound D2S18N18] was tested, and the “Absolute mRNA transfection efficiency” value was 0.0%.
For `CCCCCCCCCCCCCCCCCCSc1nc(NCCCCCCCCCCCCCCC)nc(NCCN2CCCCC2)n1` [Compound D4S18N15], the “Absolute mRNA transfection efficiency” value was 1.6%.
`CCCCCCCCCCCSc1nc(NCC2CCN(C)CC2)nc(SCCCCCC)n1` [Compound D10S6S11] was tested, and the “Absolute mRNA transfection efficiency” value was 15.9%.
With `CCCCCCCCCCCCCCCCSc1nc(NCCCCCCCCCCCCC)nc(NCCN(CC)CC)n1` [Compound D7S16N13] the “Absolute mRNA transfection efficiency” value was 2.9%.
For `CCCCCCCCCCCCCCCCSc1nc(NCCCCCCC)nc(NCCN(CC)CC)n1` [Compound D7S16N7], the “Absolute mRNA transfection efficiency” value was 7.8%.
With `CCCCCCCCCCCCCCCCCCNc1nc(NCCCN2CCN(C)CC2)nc(SCCCCCCCCC)n1` [Compound D9S9N18] the “Absolute mRNA transfection efficiency” value was 14.5%.
